# Key:
# Assay in all cases: TG Activity Assays
# [1] = target: T1, Protein-glutamine gamma-glutamyltransferase 6 (Homo sapiens, UniProt O95932)
# T1 sequence (O95932 whole entry): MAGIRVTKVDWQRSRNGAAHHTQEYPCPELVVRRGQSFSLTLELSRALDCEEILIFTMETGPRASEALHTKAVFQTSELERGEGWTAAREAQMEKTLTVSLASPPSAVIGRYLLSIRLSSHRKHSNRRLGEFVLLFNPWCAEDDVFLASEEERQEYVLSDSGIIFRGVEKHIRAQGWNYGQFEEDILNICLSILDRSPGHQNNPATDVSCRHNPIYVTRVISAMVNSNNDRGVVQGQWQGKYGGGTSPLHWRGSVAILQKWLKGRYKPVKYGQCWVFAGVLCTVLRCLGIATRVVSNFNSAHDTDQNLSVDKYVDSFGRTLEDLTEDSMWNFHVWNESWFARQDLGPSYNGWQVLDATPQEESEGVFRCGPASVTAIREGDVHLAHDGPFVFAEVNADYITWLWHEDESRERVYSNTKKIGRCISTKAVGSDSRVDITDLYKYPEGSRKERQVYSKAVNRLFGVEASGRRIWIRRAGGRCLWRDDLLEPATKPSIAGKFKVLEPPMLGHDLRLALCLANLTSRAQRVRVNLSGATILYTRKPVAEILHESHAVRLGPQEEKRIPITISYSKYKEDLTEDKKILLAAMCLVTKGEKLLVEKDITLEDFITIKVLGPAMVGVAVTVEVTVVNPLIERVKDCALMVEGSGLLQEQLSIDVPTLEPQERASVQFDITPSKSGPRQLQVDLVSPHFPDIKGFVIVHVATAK
# Protocol: (§1) The incorporated biotinylated peptides were measured using horseradish peroxidase-conjugated streptavidin and then measured using o-phenylenediamine dihydrochloride substrates. The absorbance was measured at 490 nm using a microplat
# [2] = target: T2, Protein-glutamine gamma-glutamyltransferase K (Homo sapiens, UniProt P22735)
# T2 sequence (P22735 whole entry): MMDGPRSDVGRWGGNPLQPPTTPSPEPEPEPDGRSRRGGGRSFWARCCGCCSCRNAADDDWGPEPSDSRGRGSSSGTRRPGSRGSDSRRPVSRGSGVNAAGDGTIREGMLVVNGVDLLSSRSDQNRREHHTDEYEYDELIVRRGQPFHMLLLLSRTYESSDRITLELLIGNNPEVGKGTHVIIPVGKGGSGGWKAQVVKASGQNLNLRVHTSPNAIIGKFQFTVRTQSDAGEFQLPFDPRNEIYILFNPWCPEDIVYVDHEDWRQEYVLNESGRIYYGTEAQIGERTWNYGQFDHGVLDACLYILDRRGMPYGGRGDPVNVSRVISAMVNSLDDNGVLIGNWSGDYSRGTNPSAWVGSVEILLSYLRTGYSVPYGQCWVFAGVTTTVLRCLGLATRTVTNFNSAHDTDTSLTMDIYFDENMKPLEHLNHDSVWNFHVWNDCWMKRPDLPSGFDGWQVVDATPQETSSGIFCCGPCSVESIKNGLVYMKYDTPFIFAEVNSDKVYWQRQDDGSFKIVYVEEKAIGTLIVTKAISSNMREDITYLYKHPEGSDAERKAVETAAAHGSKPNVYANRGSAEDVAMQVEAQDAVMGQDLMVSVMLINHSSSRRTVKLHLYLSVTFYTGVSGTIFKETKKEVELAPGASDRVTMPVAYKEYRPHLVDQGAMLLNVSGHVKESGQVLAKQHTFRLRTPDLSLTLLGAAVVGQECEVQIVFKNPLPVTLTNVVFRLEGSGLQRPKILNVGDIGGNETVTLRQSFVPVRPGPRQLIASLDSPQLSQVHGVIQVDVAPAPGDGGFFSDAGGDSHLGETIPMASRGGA
# Protocol: as §1
# [3] = target: T3, Protein-glutamine gamma-glutamyltransferase E (Homo sapiens, UniProt Q08188)
# T3 sequence (Q08188 whole entry): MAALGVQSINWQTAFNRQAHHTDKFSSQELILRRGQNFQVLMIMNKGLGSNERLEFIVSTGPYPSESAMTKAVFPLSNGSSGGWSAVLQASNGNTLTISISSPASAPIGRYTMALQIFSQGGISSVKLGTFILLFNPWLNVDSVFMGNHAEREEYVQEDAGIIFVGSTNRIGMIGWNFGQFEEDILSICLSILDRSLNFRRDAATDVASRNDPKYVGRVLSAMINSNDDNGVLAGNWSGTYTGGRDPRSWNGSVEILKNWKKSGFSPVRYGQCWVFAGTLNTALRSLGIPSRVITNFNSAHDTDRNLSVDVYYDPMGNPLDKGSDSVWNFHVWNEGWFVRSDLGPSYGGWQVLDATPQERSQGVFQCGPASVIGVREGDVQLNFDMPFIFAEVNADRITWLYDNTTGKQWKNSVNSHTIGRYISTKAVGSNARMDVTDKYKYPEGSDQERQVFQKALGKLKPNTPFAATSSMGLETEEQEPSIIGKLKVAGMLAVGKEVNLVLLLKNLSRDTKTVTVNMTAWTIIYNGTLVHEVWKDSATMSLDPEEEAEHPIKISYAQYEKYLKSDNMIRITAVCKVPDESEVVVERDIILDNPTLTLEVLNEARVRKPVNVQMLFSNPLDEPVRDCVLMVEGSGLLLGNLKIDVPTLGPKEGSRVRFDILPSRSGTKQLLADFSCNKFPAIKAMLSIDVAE
# Protocol: as §1
# [4] = target: T4, Protein-glutamine gamma-glutamyltransferase 2 (Homo sapiens, UniProt P21980)
# T4 sequence (P21980 whole entry): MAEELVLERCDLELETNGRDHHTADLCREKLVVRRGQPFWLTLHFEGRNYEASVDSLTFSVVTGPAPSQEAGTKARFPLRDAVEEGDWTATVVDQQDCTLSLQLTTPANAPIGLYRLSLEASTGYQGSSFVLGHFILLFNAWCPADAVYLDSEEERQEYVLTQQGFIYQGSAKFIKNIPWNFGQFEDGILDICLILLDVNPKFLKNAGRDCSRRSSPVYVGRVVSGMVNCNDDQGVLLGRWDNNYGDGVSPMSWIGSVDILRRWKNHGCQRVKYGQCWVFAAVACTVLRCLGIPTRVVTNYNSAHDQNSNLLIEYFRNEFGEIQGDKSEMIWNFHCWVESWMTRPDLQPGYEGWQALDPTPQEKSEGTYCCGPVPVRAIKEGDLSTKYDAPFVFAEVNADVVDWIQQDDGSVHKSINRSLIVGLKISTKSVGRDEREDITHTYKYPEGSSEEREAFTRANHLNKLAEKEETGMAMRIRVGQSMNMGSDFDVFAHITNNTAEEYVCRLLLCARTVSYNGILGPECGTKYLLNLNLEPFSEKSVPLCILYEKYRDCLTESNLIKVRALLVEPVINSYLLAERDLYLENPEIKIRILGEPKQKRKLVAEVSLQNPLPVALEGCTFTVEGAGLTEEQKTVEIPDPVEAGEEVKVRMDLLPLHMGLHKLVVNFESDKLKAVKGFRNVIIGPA
# Protocol: as §1
Structure (SMILES),IC50 [1] [µM],IC50 [2] [µM],IC50 [3] [µM],IC50 [4] [µM]
C[S+](C)CC(=O)NCC(=O)N1CCN(C(=O)OCC23CC4CC(CC(C4)C2)C3)CC1 [[2-[[2-[4-(1-Adamantylmethoxycarbonyl)piperazin-1-yl]-2-oxo-ethyl]amino]-2-oxoethyl]-dimethyl-sulfonium bromide (1f)],> 10,> 100,> 100,0.775
C=CC(=O)NCC(=O)N1CCN(C(=O)OCC23CC4CC(CC(C4)C2)C3)CC1 [1-Adamantylmethyl 4-[2-(prop-2-enoylamino)acetyl]piperazine-1-carboxylate (3f)],> 10,> 100,> 100,

# Now from value to compound:
IC50 [1] [µM],IC50 [2] [µM],IC50 [3] [µM],IC50 [4] [µM],Structure (SMILES)
> 10,> 100,> 100,,CN(C)c1cccc2c(S(=O)(=O)N3CCN(C(=O)CNC(=O)C[S+](C)C)CC3)cccc12 [[2-[[2-[4-[[5-(Dimethylamino)-1-naphthyl]sulfonyl]piperazin-1-yl]-2-oxo-ethyl]amino]-2-oxo-ethyl]-dimethyl-sulfonium bromide (1h)]
> 10,> 100,> 100,0.889,C[S+](C)CC(=O)NCC(=O)N1CCN(C(=O)C23CC4CC(CC(C4)C2)C3)CC1 [[2-[[2-[4-(Adamantane-1-carbonyl)piperazin-1-yl]-2-oxo-ethyl]amino]-2-oxo-ethyl]-dimethyl-sulfonium bromide (1e)]
2,2.2,11,0.125,C=CC(=O)NCC(=O)N1CCN(C(=O)C23CC4CC(CC(C4)C2)C3)CC1 [N-[2-[4-(adamantane-1-carbonyl)piperazin-1-yl]-2-oxo-ethyl]prop-2-enamide (3e)]

# Reference: BindingDB's records for doi:10.1016/j.chembiol.2015.08.013 (Aston University, 2015)
